The source of these data is PubChem BioAssay AID1794820.

In this assay the target is Na(+)/dicarboxylate cotransporter 3 (Homo sapiens) (UniProt Q8WWT9). Nature of the assay: SLC13A3 dicarboxylate substrate-evoked depolarization, dose response, membrane potential dye, HEK-293 overexpressing cells (AID 1794820). Particulars: HEK-293 SLC13A3 OE, FLIPR membrane potential dye.
Sequence of Na(+)/dicarboxylate cotransporter 3 (Homo sapiens) (Q8WWT9 whole entry, looked up): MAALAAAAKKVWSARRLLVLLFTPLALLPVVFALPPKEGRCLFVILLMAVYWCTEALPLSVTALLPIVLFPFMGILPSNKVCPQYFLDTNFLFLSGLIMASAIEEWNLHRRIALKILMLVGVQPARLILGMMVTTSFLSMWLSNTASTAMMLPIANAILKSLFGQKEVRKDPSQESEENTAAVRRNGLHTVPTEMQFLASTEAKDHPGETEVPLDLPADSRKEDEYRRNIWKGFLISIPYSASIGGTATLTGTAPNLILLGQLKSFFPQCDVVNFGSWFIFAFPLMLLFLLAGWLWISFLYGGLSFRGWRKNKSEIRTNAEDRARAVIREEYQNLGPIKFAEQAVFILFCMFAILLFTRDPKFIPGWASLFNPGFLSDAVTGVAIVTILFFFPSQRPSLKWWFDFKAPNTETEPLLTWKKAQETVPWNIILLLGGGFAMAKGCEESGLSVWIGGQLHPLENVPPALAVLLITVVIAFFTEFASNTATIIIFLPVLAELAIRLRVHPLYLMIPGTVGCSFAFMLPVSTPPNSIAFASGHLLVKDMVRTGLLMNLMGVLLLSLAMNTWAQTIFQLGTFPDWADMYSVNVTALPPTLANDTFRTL

Turning to `O=C(O)CCC(=O)C(=O)O`, the EC50 was 54 µM.
As for `O=C(O)CCC(=O)O`, the figure is 107 µM.
